Article PMC12686049 (2025)
Blank lines part the entries; values can stand above or below the molecule they belong to.

Tests used:
[1] = tested on: A1-G (DNA, G4) CCGGGAGGAATCATGTAAGGGGTCCCGGGAACGGGCAAGGGGCTTTTCACC; assay: CD titration at 295 nm, Hill fit; settings: 100 mM KCl; 10 mM sodium cacodylate, pH 7.0, 25 °C; 10 µM DNA; apparent, half-maximal ellipticity change; Hill coefficient 2.1 ± 0.9
[2] = tested on: A2-G (DNA, G4) GGGTGGGGGTGATAAACGGGGCATCAGGGACACATTGCTGGGTCGGGTCGT; assay: CD titration at 295 nm, Hill fit; settings: 100 mM KCl; 10 mM sodium cacodylate, pH 7.0, 25 °C; 10 µM DNA; apparent, half-maximal ellipticity change; Hill coefficient 2.8 ± 1.5
[3] = tested on: rodA (DNA, G4) GGGGTAGGGAACAGGGTCCCGGG; assay: thioflavin T fluorescence; settings: 100 mM KCl; 10 mM sodium cacodylate, pH 7.4; 4 µM DNA, 1 µM dye; background without DNA 1154
[4] = tested on: arp2 (DNA, G4) GGGGAGGGGACCCTTGCATGGAGGGGGGG; assay: thioflavin T fluorescence; settings: 100 mM KCl; 10 mM sodium cacodylate, pH 7.4; 4 µM DNA, 1 µM dye; background without DNA 1154
[5] = tested on: ags1 (DNA, G4) GGGCTTGAGGGGAACTGGGAGGAGCGGG; assay: thioflavin T fluorescence; settings: 100 mM KCl; 10 mM sodium cacodylate, pH 7.4; 4 µM DNA, 1 µM dye; background without DNA 1154
[6] = tested on: cyp51A (DNA, G4) GGGTGGGGGTGATAAACGGGGCATCAGGG; assay: thioflavin T fluorescence; settings: 100 mM KCl; 10 mM sodium cacodylate, pH 7.4; 4 µM DNA, 1 µM dye; background without DNA 1154
[7] = tested on: cyp51B (DNA, G4) GGGGTAGGGGGGCCCAGGG; assay: thioflavin T fluorescence; settings: 100 mM KCl; 10 mM sodium cacodylate, pH 7.4; 4 µM DNA, 1 µM dye; background without DNA 1154
[8] = tested on: hmg1 (DNA, G4) GGGCGGCAGGGACAGGGGCAACTTCGGG; assay: thioflavin T fluorescence; settings: 100 mM KCl; 10 mM sodium cacodylate, pH 7.4; 4 µM DNA, 1 µM dye; background without DNA 1154
[9] = tested on: atrR (DNA, G4) GGGGGAGGGTGCGGGATGCTCTTCGGG; assay: thioflavin T fluorescence; settings: 100 mM KCl; 10 mM sodium cacodylate, pH 7.4; 4 µM DNA, 1 µM dye; background without DNA 1154
[10] = tested on: erg1 (DNA, G4) GGGCGACGGGGAAGAGGTAGGGAGGG; assay: thioflavin T fluorescence; settings: 100 mM KCl; 10 mM sodium cacodylate, pH 7.4; 4 µM DNA, 1 µM dye; background without DNA 1154
[11] = tested on: erg5 (DNA, G4) GGGATTAGGGTATGCCTCAGGGTCATGGG; assay: thioflavin T fluorescence; settings: 100 mM KCl; 10 mM sodium cacodylate, pH 7.4; 4 µM DNA, 1 µM dye; background without DNA 1154
[12] = tested on: dppV (DNA, G4) GGGACGGCGTTGGGGGGGGGAAGGG; assay: thioflavin T fluorescence; settings: 100 mM KCl; 10 mM sodium cacodylate, pH 7.4; 4 µM DNA, 1 µM dye; background without DNA 1154
[13] = tested on: zrfC (DNA, G4) GGGTTGGGCTGGTCGACATGTGGGCCCGGG; assay: thioflavin T fluorescence; settings: 100 mM KCl; 10 mM sodium cacodylate, pH 7.4; 4 µM DNA, 1 µM dye; background without DNA 1154
[14] = tested on: zafA (DNA, G4) GGGCAGGGCAGAGCAGGGCAGGGG; assay: thioflavin T fluorescence; settings: 100 mM KCl; 10 mM sodium cacodylate, pH 7.4; 4 µM DNA, 1 µM dye; background without DNA 1154
[15] = tested on: lysF (DNA, G4) GGGACGCGGGGGGCGGCATCGGGAGCGGG; assay: thioflavin T fluorescence; settings: 100 mM KCl; 10 mM sodium cacodylate, pH 7.4; 4 µM DNA, 1 µM dye; background without DNA 1154
[16] = tested on: hscA (DNA, G4) GGGGCTGAATTGGGGGGGAAAACGAGACGGG; assay: thioflavin T fluorescence; settings: 100 mM KCl; 10 mM sodium cacodylate, pH 7.4; 4 µM DNA, 1 µM dye; background without DNA 1154
[17] = tested on: aspf2 (DNA, G4) GGGGACGGGGGAGGTAGGGAGGG; assay: thioflavin T fluorescence; settings: 100 mM KCl; 10 mM sodium cacodylate, pH 7.4; 4 µM DNA, 1 µM dye; background without DNA 1154
[18] = tested on: aspf28 (DNA, G4) GGGTTGCGAGGGAAGGAGGGGCGGG; assay: thioflavin T fluorescence; settings: 100 mM KCl; 10 mM sodium cacodylate, pH 7.4; 4 µM DNA, 1 µM dye; background without DNA 1154
[19] = tested on: gstA (DNA, G4) GGGCTGGGTGGCGGCCGCTGGTTGGGCGGG; assay: thioflavin T fluorescence; settings: 100 mM KCl; 10 mM sodium cacodylate, pH 7.4; 4 µM DNA, 1 µM dye; background without DNA 1154
[20] = tested on: yap1 (DNA, G4) GGGATGGGCTTCCCAAGTCGGGGAGAGGG; assay: thioflavin T fluorescence; settings: 100 mM KCl; 10 mM sodium cacodylate, pH 7.4; 4 µM DNA, 1 µM dye; background without DNA 1154
[21] = tested on: skn7 (DNA, single strand) GGGGGGGGGGTGGG; assay: thioflavin T fluorescence; settings: 100 mM KCl; 10 mM sodium cacodylate, pH 7.4; 4 µM DNA, 1 µM dye; background without DNA 1154
[22] = tested on: pes1 (DNA, G4) GGGAGCAAGGGGAAATCGCTGAGGGTGGG; assay: thioflavin T fluorescence; settings: 100 mM KCl; 10 mM sodium cacodylate, pH 7.4; 4 µM DNA, 1 µM dye; background without DNA 1154
[23] = tested on: atrF (DNA, G4) GGGTATTTGTTTGGGGGGATGGG; assay: thioflavin T fluorescence; settings: 100 mM KCl; 10 mM sodium cacodylate, pH 7.4; 4 µM DNA, 1 µM dye; background without DNA 1154
[24] = tested on: abcB (DNA, G4) GGGGGTGGGCGTTGGGGCGGG; assay: thioflavin T fluorescence; settings: 100 mM KCl; 10 mM sodium cacodylate, pH 7.4; 4 µM DNA, 1 µM dye; background without DNA 1154
[25] = tested on: ste7 (DNA, G4) GGGAGGGACACAAAGAGGGGATAAGGAGGG; assay: thioflavin T fluorescence; settings: 100 mM KCl; 10 mM sodium cacodylate, pH 7.4; 4 µM DNA, 1 µM dye; background without DNA 1154
[26] = tested on: bck1 (DNA, G4) GGGCCTGGAGGGGGGCCCGGGG; assay: thioflavin T fluorescence; settings: 100 mM KCl; 10 mM sodium cacodylate, pH 7.4; 4 µM DNA, 1 µM dye; background without DNA 1154
[27] = tested on: pkaC1 (DNA, G4) GGGTTGTGGTGGGTGGAGGGATGGGG; assay: thioflavin T fluorescence; settings: 100 mM KCl; 10 mM sodium cacodylate, pH 7.4; 4 µM DNA, 1 µM dye; background without DNA 1154
[28] = tested on: laeA (DNA, G4) GGGATGTGGGACAGGGATTTGGG; assay: thioflavin T fluorescence; settings: 100 mM KCl; 10 mM sodium cacodylate, pH 7.4; 4 µM DNA, 1 µM dye; background without DNA 1154
[29] = tested on: gliN (DNA, G4) GGGGGGCGCTTGGCTGGGAAGGCGGTTGGG; assay: thioflavin T fluorescence; settings: 100 mM KCl; 10 mM sodium cacodylate, pH 7.4; 4 µM DNA, 1 µM dye; background without DNA 1154
[30] = tested on: ftmC (DNA, G4) GGGTCTGGAGCGCGGGGTTCGGGGATCGGG; assay: thioflavin T fluorescence; settings: 100 mM KCl; 10 mM sodium cacodylate, pH 7.4; 4 µM DNA, 1 µM dye; background without DNA 1154
[31] = tested on: fks1 (DNA, G4) GGAAGGGGCTCGGGCATGGG; assay: thioflavin T fluorescence; settings: 100 mM KCl; 10 mM sodium cacodylate, pH 7.4; 4 µM DNA, 1 µM dye; background without DNA 1154
[32] = tested on: mp1 (DNA, single strand) GGCTCCGGCTCCGGCTCCGG; assay: thioflavin T fluorescence; settings: 100 mM KCl; 10 mM sodium cacodylate, pH 7.4; 4 µM DNA, 1 µM dye; background without DNA 1154
[33] = tested on: chsG (DNA, G4) GGAGAGCGGGAGGTGGTGAGGG; assay: thioflavin T fluorescence; settings: 100 mM KCl; 10 mM sodium cacodylate, pH 7.4; 4 µM DNA, 1 µM dye; background without DNA 1154
[34] = tested on: ftmE (DNA, G4) GGGAGTGGGGATGGCGACGGGGAGCAGGG; assay: thioflavin T fluorescence; settings: 100 mM KCl; 10 mM sodium cacodylate, pH 7.4; 4 µM DNA, 1 µM dye; background without DNA 1154
[35] = tested on: B DNA (DNA, single strand) GGCGCTATTCTCTGGTGCTGCT; assay: thioflavin T fluorescence; settings: 100 mM KCl; 10 mM sodium cacodylate, pH 7.4; 4 µM DNA, 1 µM dye; background without DNA 1154
[36] = tested on: Telomere (DNA, G4) TTAGGGTTAGGGTTAGGGTTAGGGTT; assay: thioflavin T fluorescence; settings: 100 mM KCl; 10 mM sodium cacodylate, pH 7.4; 4 µM DNA, 1 µM dye; background without DNA 1154

- K [1]: 32.7 ± 3.3 µM
- K [2]: 32.5 ± 1.8 µM
SMILES: C[n+]1cc(NC(=O)c2ccc3ccc4ccc(C(=O)Nc5cc6ccccc6[n+](C)c5)nc4c3n2)cc2ccccc21

- Fluorescence [3]: 50,100 ± 17 a.u.
- Fluorescence [4]: 82,140 ± 54 a.u.
- Fluorescence [5]: 67,230 ± 34 a.u.
- Fluorescence [6]: 62,145 ± 13 a.u.
- Fluorescence [7]: 34,409 ± 10 a.u.
- Fluorescence [8]: 148,303 ± 33 a.u.
- Fluorescence [9]: 37,691 ± 7 a.u.
- Fluorescence [10]: 71,126 ± 17 a.u.
- Fluorescence [11]: 149,474 ± 14 a.u.
- Fluorescence [12]: 47,933 ± 12 a.u.
- Fluorescence [13]: 81,452 ± 19 a.u.
- Fluorescence [14]: 26,023 ± 6 a.u.
- Fluorescence [15]: 86,442 ± 9 a.u.
- Fluorescence [16]: 56,161 ± 21 a.u.
- Fluorescence [17]: 87,449 ± 40 a.u.
- Fluorescence [18]: 71,548 ± 13 a.u.
- Fluorescence [19]: 56,709 ± 4 a.u.
- Fluorescence [20]: 69,030 ± 18 a.u.
- Fluorescence [21]: 7173 ± 6 a.u.
- Fluorescence [22]: 129,161 ± 40 a.u.
- Fluorescence [23]: 64,599 ± 9 a.u.
- Fluorescence [24]: 28,763 ± 5 a.u.
- Fluorescence [25]: 126,709 ± 54 a.u.
- Fluorescence [26]: 73,174 ± 7 a.u.
- Fluorescence [27]: 62,347 ± 4 a.u.
- Fluorescence [28]: 50,899 ± 9 a.u.
- Fluorescence [29]: 134,267 ± 16 a.u.
- Fluorescence [30]: 66,613 ± 9 a.u.
- Fluorescence [31]: 72,302 ± 9 a.u.
- Fluorescence [32]: 9852 ± 22 a.u.
- Fluorescence [33]: 38,112 ± 15 a.u.
- Fluorescence [34]: 105,384 ± 10 a.u.
- Fluorescence [35]: 8808 ± 6 a.u.
- Fluorescence [36]: 100,859 ± 19 a.u.
SMILES: Cc1ccc2c(c1)sc(-c1ccc(N(C)C)cc1)[n+]2C
